This is an account of results in patent publication US6514981B1, “Methods of modulating tyrosine protein kinase function with indolinone compounds” (Sugen, Inc., priority 1998, dated 2003).

Common to all, as to type: cell-based
Experiment [1] has as its target T1, chimeric receptor containing the EGFR extracellular domain and intracellular HER2 kinase domain (Homo sapiens, UniProt P04626).
T1 construct: P00533 (Epidermal growth factor receptor)
The experiment can be described thus: EGF receptor-HER2 phosphorylation assay in whole EGFR-NIH3T3 cells (ELISA). The note with it: NIH3T3 cells with chimeric receptor, EGF stimulation. As for the experimental part: HER2 kinase activity in whole EGFR-NIH3T3 cells was measured as described below. 1. Coat ELISA plates (Corning, 96 well, Cat. #25805-96) with 05-101 antibody at 0.5 µg per well in PBS, 100 μL final volume/well, and store overnight at 4° C. Coated plates are good for up to 10 days when stored at 4° C. 1. An NIH3T3 cell line overexpressing a chimeric receptor containing the EGFR extracellular domain and intracellular HER2 kinase domain can be used for this assay. 3. Resuspend cells in seeding medium (DMEM, 0.5% bovine serum), and count the cells using trypan blue. Viability above 90% is acceptable. Seed cells in DMEM medium (0.5% bovine serum) at a density of 10,000 cells per well, 100 μL per well, in a 96 well microtiter plate. Incubate seeded cells in 5% CO2 at 37° C. for about 40 hours. 1. Check seeded cells for contamination using an inverted microscope. […] The maximum phosphotyrosine signal is determined by subtracting the value of the negative controls from the positive controls. The percent inbibitation of phosphotyrosine content for extract-containing wells is then calculated, after subtraction of the negative controls. The IC50 values measured in the EGF receptor-HER2 phosphorylation assay for the compound of formula VI are depicted in Table 6: […]

A further experiment has as its system A431 cells. The experiment can be described thus: Growth of A431 cells (SRB). The following applies: Homo sapiens, A-431, 72 h, 2% calf serum, 3 days. As for the experimental part: The following assay measures growth rates for A43 1 cells.
2% calf serum/DMEM+2 mM glutamine, Pen/Strep
2. Dilute cells in growth medium to 60,000 cell/mL. Transfer 100 μL of cells to each well in a 96-well flat bottom plate to give 6000 cells/well.
1. In a 96-well round bottom plate, add 120 μL of growth medium containing 2×final % DMSO found in highest screening concentration of compound to columns 1 to 11. For example, if the highest concentration is […], ad this is made from a 100 mM stock, 1×DMSO is 0.1%, so 2×DMSO is 0.2%. This plate is used to titrate out the compound, 4 rows per compound.
2. In a sterile 15 mL tube, make a 2×solution of the highest screening concentration of compound in growth medium plus 2×DMSO. 1 mL per cell line is needed. The starting concentration of the compound is usually 100 μM but this concentration may vary depending upon the solubility of the compound.
3. Transfer 240 μL of the 2×starting compound solution to qudruplicate wells in column 12 of the 96-well round bottom plate. Do 1:2 serial dilutions across the plate from right to left by transferring […] from column 12 to column 11, column 11 to 10 and so on through column 2. […]
6. Read plates on Dynatech ELISA Plate REader at 570 nm with reference at 630 nm. […]

In a further experiment the test system is SKOV3 cells. As to the kind of experiment: Growth of SKOV3 cells (SRB). The note with it: Homo sapiens, SK-OV-3, 2%. From the text: The assay is the same as the assay set forth in EXAMPLE 10, except that SKOV3 cells (ATCC HTB77) are used instead of A431 cells.
Compound of formula VI inhibited the growth rate of SKOV3 cells as illustrated in Table 10.

Each structure is given as a SMILES string.

T1 sequence (P04626 720-987 limits assumed, change not shown): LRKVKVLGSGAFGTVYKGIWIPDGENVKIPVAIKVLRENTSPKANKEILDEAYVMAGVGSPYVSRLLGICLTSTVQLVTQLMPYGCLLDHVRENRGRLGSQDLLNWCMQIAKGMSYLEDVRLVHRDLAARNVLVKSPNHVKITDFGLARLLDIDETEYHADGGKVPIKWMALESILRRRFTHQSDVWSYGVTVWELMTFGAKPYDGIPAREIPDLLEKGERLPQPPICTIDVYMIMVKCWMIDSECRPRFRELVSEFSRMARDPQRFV

In the case of `Cc1cc(/C=C2/C(=O)Nc3ccccc32)c(C)c2c1[nH]c1ccccc12` [VI], the concentration for half-maximal inhibition (IC50) in experiment [1] is 8720 nM; in the experiment on A431 cells it was 0.712 µM; in the experiment on SKOV3 cells, 1.08 µM.
